Here are results for two compounds from patent publication US9739784B2, “Giant obscurins and uses thereof in cancer prognosis and therapy” (UNIVERSITY OF MARYLAND, BA, priority 2013, dated 2017).

In this experiment the test system is obscurin-KD MCF10A cells. The experiment is described as follows: Sensitivity of obscurin-KD MCF10A cells to chemotherapeutic drugs (cell viability). The class given is cell-based, human. Particulars: compared to control cells. From the text: Moreover, loss of giant obscurins results in major cytoskeletal alterations leading to increased cell growth, motility and invasion. […] Thus, breast cancer cells may have different responses to cytoskeletal-targeting chemotherapies depending on the relative expression of giant obscurins.

Consider `COc1cc([C@@H]2c3cc4c(cc3[C@@H](O[C@@H]3O[C@@H]5CO[C@@H](C)O[C@H]5[C@H](O)[C@H]3O)[C@H]3COC(=O)[C@H]23)OCO4)cc(OC)c1O` [etoposide], for which the “sensitivity of obscurin-depleted MCF10A cells to the drug” value is listed as “reduced sensitivity”.
Regarding `CC(=O)O[C@H]1C(=O)[C@@]2(C)[C@H]([C@H](OC(=O)c3ccccc3)[C@]3(O)C[C@H](OC(=O)[C@H](O)[C@@H](NC(=O)c4ccccc4)c4ccccc4)C(C)=C1C3(C)C)[C@]1(OC(C)=O)CO[C@@H]1C[C@@H]2O` [paclitaxel], the “sensitivity of obscurin-depleted MCF10A cells to the drug” value is “reduced sensitivity”.
